Experimental findings from patent US20260306527A1, “PRMT INHIBITOR COMPOUNDS AND THE USES THEREOF” (Purdue Research Foundation, priority 2023, published 2026) are described below.

What all share (type): biochemical
The target of one experiment is PRMT8 (Homo sapiens, UniProt Q9NR22). The experiment is described as follows: radioactive assay (Reaction Biology Corp.), inhibition of PRMT8. Here is the method:
(§1) Next, the inhibition activity of the library was investigated for five PRMT members from type I PRMTs.
(§2) The PRMT 4, 6 and 8 methylation assays were performed by Reaction Biology corp.

In experiment [1] the target is PRMT3 (Homo sapiens, UniProt O60678). The experiment is described as follows: SAHH-coupled fluorescence assay, inhibition of PRMT3. Set-up: PRMT3 (residues 211-531) was cloned into the pET28a-MHL expression vector; tag of the pET28a-MHL vector (not described); made in house; host or cells: Escherichia coli BL21(DE3). The method, boiled down: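 Coupled SAHH/ThioGlo4 fluorescence read-out (ex 380 nm, em 505 nm) of PRMT3 (0.25 μM) methylation with 30 μM AdoMet and 5 μM SAHH. Buffer was 20 mM Tris pH 7.5 with 0.01% Triton X-100. Run in duplicate.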
Chain of PRMT3 (Homo sapiens, UniProt O60678) (O60678 211-531): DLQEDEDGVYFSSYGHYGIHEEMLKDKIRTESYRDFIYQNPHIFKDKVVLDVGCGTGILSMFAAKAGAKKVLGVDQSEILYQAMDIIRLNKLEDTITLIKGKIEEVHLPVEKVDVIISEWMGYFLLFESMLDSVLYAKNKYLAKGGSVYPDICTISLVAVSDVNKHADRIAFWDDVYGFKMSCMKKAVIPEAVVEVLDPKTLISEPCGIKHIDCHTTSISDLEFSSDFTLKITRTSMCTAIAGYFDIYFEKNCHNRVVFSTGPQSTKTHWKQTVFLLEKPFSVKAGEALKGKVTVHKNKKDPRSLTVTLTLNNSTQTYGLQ

Another experiment has as its target PRMT6 (Homo sapiens, UniProt Q96LA8). The experiment is described as follows: radioactive assay (Reaction Biology Corp.), inhibition of PRMT6. Here is the method:
as §1, §2

Experiment [2] concerns PRMT3. The experiment is described as follows: SAHH-coupled fluorescence assay, inhibition of PRMT3. The settings on record: read-out: IC50 [µM] | PRMT3. As for the experimental part: A fluorescence-based SAHH-coupled assay was applied to study the inhibition activity of all synthesized compounds on PRMT 1 and 3.
The PRMT3 methylation assay was performed under the following conditions in a final well volume of 100 μL: 20 mM Tris (pH=7.5), 0.01% Triton X-100, 5 μM SAHH, 0.25 μM PRMT3, 30 μM AdoMet, and 15 μM ThioGlo4. […] Fluorescence was monitored on a BMG CLARIOstar microplate reader with excitation 380 nm and emission 505 nm. Data were processed by using GraphPad Prism software 8.0. All experiments were performed in duplicate.
as §1
The PRMT3 methylation assay was performed under the following conditions in a final well volume of 100 μL: 20 mM Tris (pH=7.5), 0.01% Triton X-100, 5 μM SAHH, 0.25 μM PRMT3, 30 μM AdoMet, and 15 μM ThioGlo4. […] Fluorescence was monitored on a BMG CLARIOstar microplate reader with excitation 380 nm and emission 505 nm. Data were processed by using GraphPad Prism software 8.0.

For the next experiment, the target named is T1, PRMT4 (Homo sapiens, UniProt Q86X55).
T1 sequence (Q86X55 1-608): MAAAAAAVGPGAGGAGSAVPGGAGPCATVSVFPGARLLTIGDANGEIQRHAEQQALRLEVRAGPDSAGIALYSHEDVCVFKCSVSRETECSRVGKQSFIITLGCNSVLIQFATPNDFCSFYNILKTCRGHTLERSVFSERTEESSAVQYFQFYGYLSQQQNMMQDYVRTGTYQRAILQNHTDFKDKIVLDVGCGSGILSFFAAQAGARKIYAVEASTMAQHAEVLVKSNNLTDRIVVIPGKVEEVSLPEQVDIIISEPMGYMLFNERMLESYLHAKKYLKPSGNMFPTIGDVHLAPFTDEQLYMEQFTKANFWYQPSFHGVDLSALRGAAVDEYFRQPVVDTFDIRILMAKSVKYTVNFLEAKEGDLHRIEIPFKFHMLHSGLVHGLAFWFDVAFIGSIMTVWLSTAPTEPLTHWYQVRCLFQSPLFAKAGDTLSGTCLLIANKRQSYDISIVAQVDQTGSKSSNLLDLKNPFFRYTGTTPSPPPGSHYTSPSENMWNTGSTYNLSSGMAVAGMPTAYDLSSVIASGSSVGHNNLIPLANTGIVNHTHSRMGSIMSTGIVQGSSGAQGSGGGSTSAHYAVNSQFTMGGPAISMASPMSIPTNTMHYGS
The experiment is described as follows: radioactive assay (Reaction Biology Corp.), inhibition of PRMT4. As for the experimental part:
as §1, §2

The target of the next experiment is T2, PRMT1 (Homo sapiens, UniProt Q99873).
T2 construct: made in house
T2 sequence (Q99873 whole entry, species assumed): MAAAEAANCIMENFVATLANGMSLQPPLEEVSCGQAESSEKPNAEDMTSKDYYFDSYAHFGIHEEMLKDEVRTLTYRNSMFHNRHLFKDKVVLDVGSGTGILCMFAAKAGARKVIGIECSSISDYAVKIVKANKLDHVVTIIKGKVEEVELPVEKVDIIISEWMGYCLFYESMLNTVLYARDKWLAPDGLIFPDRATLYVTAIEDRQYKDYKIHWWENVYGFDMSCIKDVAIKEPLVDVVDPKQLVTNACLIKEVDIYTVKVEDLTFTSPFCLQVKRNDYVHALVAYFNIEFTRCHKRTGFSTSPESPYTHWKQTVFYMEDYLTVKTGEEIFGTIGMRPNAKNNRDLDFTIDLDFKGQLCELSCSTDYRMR
The experiment is described as follows: SAHH-coupled fluorescence assay, inhibition of PRMT1. The essentials:
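PRMT1 (0.1 μM) was run with 10 μM AdoMet, 5 μM SAHH and 10 μM ThioGlo4 in 2.5 mM HEPES pH 7.0, 25 mM NaCl, 25 μM EDTA, 50 μM TCEP and 0.01% Triton X-100. Fluorescence (ex 400/em 465 nm) was monitored for 15 min. Assays were done in duplicate.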

Like-named read-outs stand apart in the source and are kept apart here.

Chain of PRMT8 (Q9NR22 whole entry, species assumed): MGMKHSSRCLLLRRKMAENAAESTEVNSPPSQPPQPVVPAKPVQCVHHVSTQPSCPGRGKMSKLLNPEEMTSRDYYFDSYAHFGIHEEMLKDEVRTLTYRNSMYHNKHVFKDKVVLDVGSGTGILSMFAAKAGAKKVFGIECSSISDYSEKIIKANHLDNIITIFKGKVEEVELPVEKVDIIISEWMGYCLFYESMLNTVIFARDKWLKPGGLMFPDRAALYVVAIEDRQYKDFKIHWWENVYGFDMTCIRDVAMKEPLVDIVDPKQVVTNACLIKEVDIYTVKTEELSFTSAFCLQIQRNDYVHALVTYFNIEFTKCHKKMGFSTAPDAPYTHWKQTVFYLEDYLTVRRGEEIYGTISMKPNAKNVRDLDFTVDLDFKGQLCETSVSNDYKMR
Chain of PRMT6 (Q96LA8 whole entry, species assumed): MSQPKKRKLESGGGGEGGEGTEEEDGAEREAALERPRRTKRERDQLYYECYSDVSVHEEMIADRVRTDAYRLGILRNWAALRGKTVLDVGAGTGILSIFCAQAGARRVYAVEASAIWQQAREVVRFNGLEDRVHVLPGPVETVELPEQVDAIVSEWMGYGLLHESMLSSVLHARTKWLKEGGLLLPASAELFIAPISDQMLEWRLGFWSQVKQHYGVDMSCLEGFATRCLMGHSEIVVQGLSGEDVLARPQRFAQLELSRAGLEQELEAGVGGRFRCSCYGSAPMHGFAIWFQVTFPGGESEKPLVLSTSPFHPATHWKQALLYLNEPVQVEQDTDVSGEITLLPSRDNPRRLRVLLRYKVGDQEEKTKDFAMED

As for `N=C(NCCSC[C@H]1O[C@@H](n2cnc3c(N)ncnc32)[C@H](O)[C@@H]1O)NCc1ccccc1` [Compound 5a], the inhibition at 10 µM on PRMT8 was 76%; at PRMT3 [1], 57%; on PRMT6, 93%; at PRMT4, 99%; on PRMT1 it was 86%. Moreover, the “fold decrease in PRMT3 inhibition” value on PRMT3 [1] (1d (2C-atom linker) vs II710) is given as 3 fold. For the same compound, the IC50 came to 33 ± 4.3 µM in the experiment on PRMT3 [2] and 1 ± 0.065 µM at PRMT1 (read-out: IC50[μM] | PRMT1).
On to `Nc1ncnc2c1ncn2[C@@H]1O[C@H](CSCCOc2ccc(-c3ccoc3)cc2)[C@@H](O)[C@H]1O` [Compound 14c], for which the inhibition at 10 µM on PRMT8 turned out to be 39%; against PRMT3 [1] it was 6%; at PRMT6, 3%; on PRMT4 it was 17%; against PRMT1, 3%.
As for `Nc1ncnc2c1ncn2[C@@H]1O[C@H](CSCCOc2ccc(-c3ccc(F)c(O)c3)cc2)[C@@H](O)[C@H]1O` [Compound 14d], the inhibition at 10 µM at PRMT8 came out at 42%; against PRMT3 [1], 3%; at PRMT6 it was 18%; on PRMT4, 51%; against PRMT1, 16%.
Consider `Nc1ncnc2c1ncn2[C@@H]1O[C@H](CSCCOc2ccc(-c3cncnc3)cc2)[C@@H](O)[C@H]1O` [Compound 14e], for which the inhibition at 10 µM on PRMT8 was 28%; against PRMT3 [1], 16%; on PRMT6, 7%; on PRMT4, 22%; on PRMT1 it was 7%.
As to `Nc1ncnc2c1ncn2[C@@H]1O[C@H](CSCCOc2ccc(-c3cccc(O)c3)cc2)[C@@H](O)[C@H]1O` [Compound 14f], the inhibition at 10 µM was 40% on PRMT8; 5% against PRMT3 [1]; 13% on PRMT6; 62% at PRMT4; 5% on PRMT1.
As for `Nc1ncnc2c1ncn2[C@@H]1O[C@H](CSCCOc2ccc(-c3ccccc3O)cc2)[C@@H](O)[C@H]1O` [Compound 14g], the inhibition at 10 µM was found to be 39% on PRMT8; 5% at PRMT3 [1]; 10% on PRMT6; 35% at PRMT4; 5% against PRMT1.
Regarding `Nc1ncnc2c1ncn2[C@@H]1O[C@H](CSCCOc2ccc(-c3ccncc3)cc2)[C@@H](O)[C@H]1O` [Compound 14h], the inhibition at 10 µM was 15% at PRMT8; 8% against PRMT3 [1]; 6% at PRMT6; 48% at PRMT4; 10% against PRMT1.
In the case of `CCCCNC(=N)NCCCSC[C@H]1O[C@@H](n2cnc3c(NCCCc4ccccc4)ncnc32)[C@H](O)[C@@H]1O` [Compound 19a], the inhibition at 10 µM at PRMT8 worked out at 85%; against PRMT3 [1], 14%; at PRMT6, 84%; on PRMT4 it was 47%; against PRMT1, 94%. Besides, the IC50 at PRMT1 (read-out: IC50 FOR PRMT1) was 0.65 ± 0.062 µM.
In the case of `N=C(NCCCSC[C@H]1O[C@@H](n2cnc3c(NCCCc4ccccc4)ncnc32)[C@H](O)[C@@H]1O)NC1CC1` [Compound 19b], the inhibition at 10 µM amounted to 69% on PRMT8; 13% at PRMT3 [1]; 73% on PRMT6; 23% at PRMT4; 86% against PRMT1. Moreover, the IC50 on PRMT1 (read-out: IC50 FOR PRMT1) worked out at 1.2 ± 0.052 µM.
As to `N=C(NCCCSC[C@H]1O[C@@H](n2cnc3c(NCCCc4ccccc4)ncnc32)[C@H](O)[C@@H]1O)NC1CCC1` [Compound 19c], the inhibition at 10 µM at PRMT8 is 91%; against PRMT3 [1] it was 8%; at PRMT6, 93%; on PRMT4, 50%; against PRMT1, 80%. At PRMT1 (read-out: IC50 FOR PRMT1), the IC50 was 0.55 ± 0.051 µM.
For `N=C(NCCCSC[C@H]1O[C@@H](n2cnc3c(NCCCc4ccccc4)ncnc32)[C@H](O)[C@@H]1O)NC1CCCC1` [Compound 19d], the inhibition at 10 µM on PRMT8 turned out to be 85%; against PRMT3 [1], 8%; on PRMT6 it was 91%; on PRMT4, 60%; against PRMT1, 90%. Further, the IC50 at PRMT1 (read-out: IC50 FOR PRMT1) amounted to 0.59 ± 0.071 µM.
In the case of `N=C(NCCCSC[C@H]1O[C@@H](n2cnc3c(NCCCc4ccccc4)ncnc32)[C@H](O)[C@@H]1O)NC1CCCCC1` [Compound 19e], the inhibition at 10 µM at PRMT8 was 79%; on PRMT3 [1], 10%; on PRMT6, 88%; on PRMT4, 44%; at PRMT1, 89%. In addition, the IC50 at PRMT1 (read-out: IC50 FOR PRMT1) was determined as 0.75 ± 0.046 µM.
In the case of `N=C(NCCCSC[C@H]1O[C@@H](n2cnc3c(NCCCc4ccccc4)ncnc32)[C@H](O)[C@@H]1O)NCC1CC1` [Compound 19f], the inhibition at 10 µM at PRMT8 worked out at 74%; at PRMT3 [1], 3%; at PRMT6, 88%; at PRMT4, 36%; against PRMT1, 76%. Moreover, the IC50 at PRMT1 (read-out: IC50 FOR PRMT1) is 0.92 ± 0.091 µM.
Turning to `N=C(NCCCN)NCCCSC[C@H]1O[C@@H](n2cnc3c(NCCCc4ccccc4)ncnc32)[C@H](O)[C@@H]1O` [Compound 19i], the inhibition at 10 µM on PRMT8 was 74%; at PRMT3 [1] it was 13%; on PRMT6, 79%; at PRMT4 it was 37%; against PRMT1, 89%. At PRMT1 (read-out: IC50 FOR PRMT1), the IC50 stood at 1.3 ± 0.066 µM.
In the case of `N=C(NCCCSC[C@H]1O[C@@H](n2cnc3c(NCCCc4ccccc4)ncnc32)[C@H](O)[C@@H]1O)Nc1ccccc1` [Compound 19j], the inhibition at 10 µM on PRMT8 came out at 86%; at PRMT3 [1], 2%; at PRMT6, 92%; on PRMT4 it was 54%; on PRMT1, 83%. In addition, the IC50 at PRMT1 (read-out: IC50 FOR PRMT1) was 0.46 ± 0.074 µM.
`N=C(NCCCSC[C@H]1O[C@@H](n2cnc3c(NCCCc4ccccc4)ncnc32)[C@H](O)[C@@H]1O)NCc1ccccc1` [Compound 19k]: the inhibition at 10 µM was 83% at PRMT8; 10% at PRMT3 [1]; 89% on PRMT6; 44% at PRMT4; 89% against PRMT1. Also, the IC50 on PRMT1 (read-out: IC50 FOR PRMT1) amounted to 0.48 ± 0.079 µM.
For `N=C(NCCCSC[C@H]1O[C@@H](n2cnc3c(NCCCc4ccccc4)ncnc32)[C@H](O)[C@@H]1O)NCCc1ccccc1` [Compound 19l], the inhibition at 10 µM at PRMT8 was 87%; at PRMT3 [1], 9%; at PRMT6, 86%; on PRMT4, 26%; against PRMT1, 90%. In addition, the half-maximal inhibitory concentration (IC50) at PRMT1 (read-out: IC50 FOR PRMT1) amounted to 0.5 ± 0.075 µM.
`N=C(NCCCSC[C@H]1O[C@@H](n2cnc3c(NCCCc4ccccc4)ncnc32)[C@H](O)[C@@H]1O)NCCCc1ccccc1` [Compound 19m]: the inhibition at 10 µM at PRMT8 was determined as 85%; at PRMT3 [1], 5%; at PRMT6, 83%; on PRMT4 it was 58%; against PRMT1 it was 87%. Further, the IC50 on PRMT1 (read-out: IC50 FOR PRMT1) turned out to be 0.74 ± 0.08 µM.

Broadly, the inhibition is the relative decrease from the control value, in per cent. As a reminder, the IC50 is the concentration that gives 50% inhibition.
